Legend:
KCNQ2/3 channels = target: T1, KCNQ2/3 channels (Homo sapiens, UniProt O43525+O43526); assay: Fluorescence assay using a voltage sensitive dye (fluorimetry); type: cell-based; details: CHO-K1 cells expressing KCNQ2/3 channels
T1 construct: expressed in transfected cells; host or cells: CHO-K1 cells kept under selection antibiotics
Description: Method I. Fluorescence Assay Using a Voltage Sensitive Dye (Fluorimetry) […] CHO-K1 cells expressing KCNQ2/3 channels are cultivated adherently at 37° C., 5% CO2 and 95% humidity in cell culture bottles (e.g. 80 cm^2 TC flasks, Nunc) with DMEM-high glucose (Sigma Aldrich, D7777) including 10% FCS (PAN Biotech, e.g. 3302-P270521) or alternatively MEM Alpha Medium (1×, liquid, Invitrogen, #22571), 10% fetal calf serum (FCS) (Invitrogen, #10270-106, heat-inactivated) and the necessary selection antibiotics.
Before being sown out for the measurements, the cells are washed with 1×DPBS buffer Ca^2+/Mg^2+-free (e.g. Invitrogen, #14190-094) and detached from the bottom of the culture vessel by using Accutase (PAA Laboratories, #L11-007) (incubation with Accutase for 15 min at 37° C.). The cell number is determined using a CASY™ cell counter (TCC, Scharfe System). Depending on the optimal density for each individual cell line, 20,000-30,000 cells/well/100 μl are seeded onto 96-well Corning™ CeIIBIND™ assay plates (Flat Clear Bottom Black Polystyrene Microplates, #3340). Freshly seeded cells are then left to settle for one hour at room temperature, followed by incubation for 24 hours at 37° C., 5% CO2 and 95% humidity.
The voltage-sensitive fluorescent dye from the Membrane Potential Assay Kit (Red™ Bulk format part R8123 for FLIPR, MDS Analytical Technologies™) is prepared by dissolving the contents of one vessel Membrane Potential Assay Kit Red Component A in 200 ml of extracellular buffer (ES buffer, 120 mM NaCl, 1 mM KCl, 10 mM HEPES, 2 mM CaCl2, 2 mM MgCl2, 10 mM glucose; pH 7.4). After removal of the nutrient medium, the cells are washed once with 200 μl of ES buffer, then loaded for 45 min at room temperature in 100 μl of dye solution in the dark.
Fluorescence measurements are carried out in a BMG Labtech FLUOstar™, BMG Labtech NOVOstar™ or BMG Labtech POLARstar™ instrument (525 nm excitation, 560 nm emission, Bottom Read mode). After incubation with the dye, 50 μl of the test substances in the desired concentrations, or 50 μl of ES buffer for control purposes, are applied to the wells of the assay plate and incubated for 30 min at room temperature while being shielded from light. The fluorescence intensity of the dye is then measured for 5 min and the fluorescence value F1 of each well is thus determined at a given, constant time. 15 μl of a KCl solution are then added to each well (final concentration of potassium ions 92 mM). The change in fluorescence intensity is subsequently monitored until all the relevant values have been obtained (mainly 5-30 min). At a given time post KCl application, a fluorescence value F2 is determined, in this case at the time of the fluorescence peak.
For calculation, the fluorescence intensity F2 is corrected for the fluorescence intensity F1, and the activity (ΔF/F) of the target compound on the potassium channel is determined as follows:
In order to determine whether a substance has agonistic activity, is determined by adding to the well only the buffer solution instead of the test substance, determining the value F1K of the fluorescence intensity, adding the potassium ions as described above, and measuring a value F2K of the fluorescence intensity. F2K and F1K are then calculated as follows: […]
A substance has an agonistic activity on the potassium channel if it is possible to conclude that a target compound has agonistic activity if Calculations of EC50 and IC50 values are carried out with the aid of ‘Prism v4.0’ software (GraphPad Software™).

[1] = system: withdrawal reflex of the rat tail (tail flick) to radiant heat beam; assay: Low-intensity tail flick test (rat); type: in vivo; details: dose 10 mg/kg (dose in brackets), MPE = percentage of maximum possible effect
Description: Method II. Low-Intensity Tail Flick Test (Rat)
In the low-intensity tail flick test, the determination of the antinociceptive effect of the compounds according to the invention towards an acute noxious thermal stimulus is carried out by measuring the withdrawal reflex of the rat tail (tail flick) in response to a radiant heat beam (analgesia meter; model 2011 of the company Rhema Labortechnik, Hofheim, Germany) according to the method described by D'Amour and Smith (J. Pharm. Exp. Ther. 72, 74 79 (1941). To this end, the rats were placed in a plexiglas restrainer, and a low-intensity radiant heat beam (48° C.) was focused onto the dorsal surface of the tail root. The stimulus intensity was adjusted to result in a mean pre-drug control withdrawal latency of about 7 s, thus also allowing a supraspinal modulation of the spinally mediated acute nociceptive reflex. […] Before administration of a compound according to the invention, the animals were pre-tested twice in the course of five minutes and the mean of these measurements was calculated as the pre-test mean. The antinociceptive effect was determined at 20, 40 and 60 min after peroral compound administration. The antinociceptive effect was calculated based on the increase in the tail withdrawal latency according to the following formula and is expressed as percentage of the maximum possible effect (MPE [%]): […]

With CCCc1cc(N2CCOCC2)nc(C)c1C(=O)NCc1ccc(Cl)cc1 [Example 4, N-[(4-Chlorophenyl)-methyl]-2-methyl-6-morpholin-4-yl-4-propyl-pyridine-3-carboxylic acid amide] the Emax (KCNQ2/3 channels; relative to retigabine = 100%, read-out: Fluorimetry % efficacy (retigabine = 100%)) was 187%, the EC50 (KCNQ2/3 channels; voltage-sensitive dye, read-out: Fluorimetry EC50/IC50) was 263 nM and the “Low intensity tail flick, rat, peroral, MPE (dose)” value [1] was 42 (10) %.
